No end group written: not given here.
Assays:
IL-6 = test: Amount of IL-6 at the arthritic joints (FIG. 10); assay type: in vivo, DBA/1 male mice
Procedure: (§1) On day 22, groups of mice were given different drugs once each day for 28 days (4 weeks) until day 49 (end of week 7). The groups of mice were examined for inflammation and status.
(§2) In reference to FIGS. 10 and 11, the amount of pro-inflammation cytokine factors IL-6 and IL-1β were measured at the arthritic joints of the variously treated mice groups.

[1] = test system: Collagen induced arthritis in mice; test: 3D CT scan of paw joints, bone density changes (FIG. 7); assay type: in vivo, DBA/1 male mice; conditions: end of week 7
Procedure: (§3) Type II collagen was dissolved in 0.1 mM acetic acid solution and was emulsified with equal volume of Complete Freund's Adjuvant to make a 1.0 mg/ml Type II collagen emulsion. After one week of resting and environment adjustment, DBA/1 male mice were divided into groups, each group was consisted of 10 mice. Each animal was injected intradermally at the 2-3 cm base of the tail an emulsion of 100 μg Type II collagen. On day 21, a second booster dose of 100 μg Type II collagen emulsion was injected. Negative control group of mice are injected with equal amount of 0.9% Sodium Chloride solution.
as §1

[2] = test system: Collagen induced arthritis in mice; test: Hematoxylin and eosin histology of hind limb joint sections (FIG. 8); assay type: in vivo, DBA/1 male mice; conditions: H&E
Procedure: as §3, §1
To evaluate the soft tissue damages around the joint area, the joint tissues of the hind limbs of each mouse groups were then fixed, embedded, sectioned into slides and hematoxylin and eosin stained to examine the histology and histopathology changes at the joints.

[3] = patients; cited from earlier work
[4] = light and heat; cited from earlier work
[5] = test system: Collagen induced arthritis in mice; test: Visual inflammation scoring of paws (0-4 per limb, four limbs summed), collagen induced arthritis; assay type: in vivo, DBA/1 male mice
Text: Collagen induced arthritis in mice has been the standard animal model for studying rheumatoid arthritis and other polyarthritis. DBA/1 male mice weighted 20-22 grams were purchased from Hua-Fu-Kang Biotechnology Limited, Beijing, China. Type II collagen and Complete Freund's Adjuvant were purchased from Chondrex Inc., Redmond, Wash., USA. Auranofin was purchased from Sigma, USA and Dexamethasone was purchased from Jin-Yao Amino Acid Company, Tianjing, China. Gold25(peptide)9 cluster molecules were prepared according to Example 1.
as §3, §1
The inflammation was assessed by means of a visual scoring method where mouse individual paws were graded from 0-4 as follows:
0 score: no redness and no swelling;
1 score: mild erythema at the toes;
2 scores: toe joints and paw swelling;
3 scores: swelling below ankle
4 scores: all ankle and paw swelling. • All four limbs of each mouse were examined and scored, and scores of all four limbs were added together for each mouse.

[6] = Effect of treatment on body weight of type II collagen immunized mice; assay type: in vivo, DBA/1 male mice; conditions: mean ± sd
Procedure: DBA/1 male mice weighted 20-22 grams were purchased from Hua-Fu-Kang Biotechnology Limited, Beijing, China. Type II collagen and Complete Freund's Adjuvant were purchased from Chondrex Inc., Redmond, Wash., USA. […] Gold25(peptide)9 cluster molecules were prepared according to Example 1.
as §3, §1

[7] = Amount of gold at the arthritic joints (FIG. 9); assay type: in vivo, DBA/1 male mice; conditions: group 3, oral 1 mg/kg daily
Procedure: as §1
In reference to FIG. 9, the amount of gold was measured at the arthritic joints of the variously treated mice groups.

[8] = test system: Collagen induced arthritis in mice; test: Pictures of hind limb swelling (FIG. 6), collagen induced arthritis; assay type: in vivo, DBA/1 male mice; conditions: end of 7 weeks of the experiment
Procedure: as §3, §1

[9] = orally administered form, crystalline solid; cited from earlier work
IL-1β = test: Amount of IL-1β at the arthritic joints (FIG. 11); assay type: in vivo, DBA/1 male mice
Procedure: as §1, §2

TNF = test: Amount of TNF at the arthritic joints; assay type: in vivo, DBA/1 male mice
Procedure: as §1
In reference to […], the amount of pro-inflammation cytokine TNF was measured at the arthritic joints of the variously treated mice groups. […] The observed significant differences in effectiveness between orally administering and intraperitoneally administering methods may result from the fact that the amount of gold can be more and directly up-taken through phagocytosis by the macrophage cells peritoneum. This effect is also largely consistent with the prior observation that gold25(peptide)9 cluster molecules are capable of induce apoptosis in various cells, and its binding ability of cysteine-rich pro-inflammation cytokines helps with its anti-inflammation effect.

Molecule: CC[PH](CC)(CC)[Au][S][C@@H]1O[C@H](COC(C)=O)[C@@H](OC(C)=O)[C@H](OC(C)=O)[C@H]1OC(C)=O [Auranofin, 2,3,4,6-tetra-o-acetyl-1-thio-β-D-glucopyranosato-S-(triethyl-phosphine)-gold, reference compound]
- Amount of IL-6 at the arthritic joints (IL-6; group 3, oral 1 mg/kg daily): remained high
- Bone deformation and osteolysis of paw joints, 3D CT ([1]; oral 1 mg/kg daily): still developed bone deformation and osteolysis
- Joint histopathology (bone erosion, soft tissue damage, synovial macrophage infiltration) ([2]; oral 1 mg/kg daily): significant soft tissue damages at the joint areas, and large number of infiltration of synovial macrophage cells
- Side effects [3]: Diarrhea is the most commonly reported
- Stability of the powder [4]: unstable and must be protected from light and heat
- Inflammation visual score (sum of four limbs, each 0-4) ([5]; 35 d, i.g. 1 mg/kg once daily from day 22): 6.66 ± 2.00
- Inflammation visual score (sum of four limbs, each 0-4) ([5]; 38 d, i.g. 1 mg/kg once daily from day 22): 5.77 ± 3.42
- Inflammation visual score (sum of four limbs, each 0-4) ([5]; 42 d, i.g. 1 mg/kg once daily from day 22): 8.11 ± 2.47
- Inflammation visual score (sum of four limbs, each 0-4) ([5]; 45 d, i.g. 1 mg/kg once daily from day 22): 8.33 ± 3.42
- Inflammation visual score (sum of four limbs, each 0-4) ([5]; 49 d, i.g. 1 mg/kg once daily from day 22): 9.88 ± 3.06
- Swelling scores (in words) ([5]; oral 1 mg/kg body weight): slightly lower swelling scores
- Mice Body Weight ([6]; 0 w (before dosing, which starts day 22), group i.g. 1 mg/kg): 21.60 ± 1.17 g
- Mice Body Weight ([6]; 1 wk (before dosing), group i.g. 1 mg/kg): 23.25 ± 1.11 g
- Mice Body Weight ([6]; 2 wk (before dosing), group i.g. 1 mg/kg): 23.75 ± 1.11 g
- Mice Body Weight ([6]; 3 wk (before dosing), group i.g. 1 mg/kg): 24.35 ± 1.53 g
- Mice Body Weight ([6]; 4 wk, i.g. 1 mg/kg once daily from day 22): 22.10 ± 1.10 g
- Mice Body Weight ([6]; 5 wk, i.g. 1 mg/kg once daily from day 22): 21.74 ± 1.14 g
- Mice Body Weight ([6]; 6 wk, i.g. 1 mg/kg once daily from day 22): 23.24 ± 0.08 g
- Mice Body Weight ([6]; 7 wk, i.g. 1 mg/kg once daily from day 22): 23.33 ± 0.25 g
- Amount of gold at the arthritic joints [7]: Less but comparable amount gold
- Hind limb swelling in pictures (FIG. 6) ([8]; oral 1 mg/kg daily): swelling and no obvious improvement
- Solubility in water [9]: insoluble in water
- Amount of IL-1β at the arthritic joints (IL-1β; group 3, oral 1 mg/kg daily): remained high

Molecule: C[C@@H]1C[C@H]2[C@@H]3CCC4=CC(=O)C=C[C@]4(C)[C@@]3(F)[C@@H](O)C[C@]2(C)[C@@]1(O)C(=O)CO [DEX, Dexamethasone, reference compound]
- Inflammation visual score (sum of four limbs, each 0-4) ([5]; 35 d, i.g. 0.5 mg/kg once daily from day 22): 0.22 ± 0.44
- Inflammation visual score (sum of four limbs, each 0-4) ([5]; 38 d, i.g. 0.5 mg/kg once daily from day 22): 0.33 ± 0.71
- Inflammation visual score (sum of four limbs, each 0-4) ([5]; 42 d, i.g. 0.5 mg/kg once daily from day 22): 1.22 ± 1.30
- Inflammation visual score (sum of four limbs, each 0-4) ([5]; 45 d, i.g. 0.5 mg/kg once daily from day 22): 1.33 ± 1.00
- Inflammation visual score (sum of four limbs, each 0-4) ([5]; 49 d, i.g. 0.5 mg/kg once daily from day 22): 1.22 ± 0.97
- Mice Body Weight ([6]; 2 wk (before dosing), group i.g. 0.5 mg/kg): 23.20 ± 1.06 g
- Mice Body Weight ([6]; 3 wk (before dosing), group i.g. 0.5 mg/kg): 23.50 ± 1.02 g

Molecule: Au25 (peptide)9: metallic 25 gold atom cluster binding 9 peptides of SEQ ID NO: 1 Cys-Cys-Tyr-Gly-Gly-Pro-Lys-Lys-Lys-Arg-Lys-Pro-Gly (CCYGGPKKKRKPG; cysteine pairing not given here; also: 9 peptides bound to Au25 gold cluster)
- Amount of IL-6 at the arthritic joints (IL-6; group 4, oral 50 mg/kg daily): reduced these two cytokines to the similar level as that of Dex
- Amount of IL-6 at the arthritic joints (IL-6; group 5, i.p. 5 mg/kg daily): reduced these two cytokines to the similar level as that of Dex
- Bone density, deformation and osteolysis of paw joints, 3D CT ([1]; i.p. 5 mg/kg daily): significant improvement on the bone density comparing the non-treated arthritis mice, and no obvious osteolysis and only slight bone deformation
- Bone deformation and osteolysis of paw joints, 3D CT ([1]; oral 50 mg/kg daily): still developed bone deformation and osteolysis
- Joint histopathology (bone erosion, soft tissue damage, synovial macrophage infiltration) ([2]; i.p. 5 mg/kg daily): the bone erosion is significantly less and no apparent number of synovial macrophage cells infiltration
- Joint histopathology (bone erosion, soft tissue damage, synovial macrophage infiltration) ([2]; oral 50 mg/kg daily): reduced soft tissue damages and less macrophage infiltration
- Amount of TNF at the arthritic joints (TNF; group 4, oral 50 mg/kg daily): also reduced the amount of TNF
- Amount of TNF at the arthritic joints (TNF; group 5, i.p. 5 mg/kg daily): dramatically reduced the TNF generation
- Inflammation visual score (sum of four limbs, each 0-4) ([5]; 35 d, i.g. 50 mg/kg once daily from day 22): 6.13 ± 3.09
- Inflammation visual score (sum of four limbs, each 0-4) ([5]; 35 d, i.p. 5 mg/kg once daily from day 22): 8.00 ± 2.78
- Inflammation visual score (sum of four limbs, each 0-4) ([5]; 38 d, i.g. 50 mg/kg once daily from day 22): 7.00 ± 3.07
- Inflammation visual score (sum of four limbs, each 0-4) ([5]; 38 d, i.p. 5 mg/kg once daily from day 22): 7.77 ± 4.49
- Inflammation visual score (sum of four limbs, each 0-4) ([5]; 42 d, i.g. 50 mg/kg once daily from day 22): 8.88 ± 3.04
- Inflammation visual score (sum of four limbs, each 0-4) ([5]; 42 d, i.p. 5 mg/kg once daily from day 22): 7.00 ± 3.20
- Inflammation visual score (sum of four limbs, each 0-4) ([5]; 45 d, i.g. 50 mg/kg once daily from day 22): 8.88 ± 3.52
- Inflammation visual score (sum of four limbs, each 0-4) ([5]; 45 d, i.p. 5 mg/kg once daily from day 22): 6.38 ± 2.33
- Inflammation visual score (sum of four limbs, each 0-4) ([5]; 49 d, i.g. 50 mg/kg once daily from day 22): 9.13 ± 0.48
- Inflammation visual score (sum of four limbs, each 0-4) ([5]; 49 d, i.p. 5 mg/kg once daily from day 22): 5.88 ± 3.40
- Swelling and joint deformity (in words) ([5]; i.p. 5 mg/kg body weight, 3′ week of treatment): significantly improved
- Swelling scores (in words) ([5]; oral 50 mg/kg body weight, by the end of 4 weeks of treatment): better scores than Auranofin, but still developed comparable inflammation
- Mice Body Weight ([6]; 0 w (before dosing, which starts day 22), group i.g. 50 mg/kg): 21.60 ± 1.31 g
- Mice Body Weight ([6]; 0 w (before dosing, which starts day 22), group i.p. 5 mg/kg): 22 ± 1.27 g
- Mice Body Weight ([6]; 1 wk (before dosing), group i.g. 50 mg/kg): 23.05 ± 1.04 g
- Mice Body Weight ([6]; 1 wk (before dosing), group i.p. 5 mg/kg): 23.25 ± 1.21 g
- Mice Body Weight ([6]; 2 wk (before dosing), group i.g. 50 mg/kg): 23.40 ± 1.33 g
- Mice Body Weight ([6]; 2 wk (before dosing), group i.p. 5 mg/kg): 24.13 ± 0.99 g
- Mice Body Weight ([6]; 3 wk (before dosing), group i.g. 50 mg/kg): 24.10 ± 1.50 g
- Mice Body Weight ([6]; 3 wk (before dosing), group i.p. 5 mg/kg): 24.00 ± 0.85 g
- Mice Body Weight ([6]; 4 wk, i.g. 50 mg/kg once daily from day 22): 22.66 ± 1.64 g
- Mice Body Weight ([6]; 4 wk, i.p. 5 mg/kg once daily from day 22): 23.30 ± 0.84 g
- Mice Body Weight ([6]; 5 wk, i.g. 50 mg/kg once daily from day 22): 22.35 ± 1.73 g
- Mice Body Weight ([6]; 5 wk, i.p. 5 mg/kg once daily from day 22): 23.01 ± 0.70 g
- Mice Body Weight ([6]; 6 wk, i.g. 50 mg/kg once daily from day 22): 23.23 ± 1.71 g
- Mice Body Weight ([6]; 6 wk, i.p. 5 mg/kg once daily from day 22): 22.63 ± 1.71 g
- Mice Body Weight ([6]; 7 wk, i.g. 50 mg/kg once daily from day 22): 23.43 ± 1.47 g
- Mice Body Weight ([6]; 7 wk, i.p. 5 mg/kg once daily from day 22): 22.47 ± 1.43 g
- Hind limb swelling in pictures (FIG. 6) ([8]; i.p. 5 mg/kg daily): obvious reduced swelling and improvement in deformation
- Hind limb swelling in pictures (FIG. 6) ([8]; oral 50 mg/kg daily): still obvious swelling and slightly better condition
- Amount of IL-1β at the arthritic joints (IL-1β; group 4, oral 50 mg/kg daily): reduced these two cytokines to the similar level as that of Dex
- Amount of IL-1β at the arthritic joints (IL-1β; group 5, i.p. 5 mg/kg daily): reduced these two cytokines to the similar level as that of Dex
